According to US20250326795A1, “USE OF D-ENANTIOMERIC PEPTIDE LIGANDS OF MONOMERIC TAU FOR THE THERAPY OF VARIOUS TAUOPATHIES” (PRIAVOID GMBH, priority 2021, published 2025):
Read-outs that look alike come from different tables or passages of the source. Where a SMILES comes first, the peptide text is derived from it. [ ]: non-standard residue; d: D form.

Key:
tau = tau (Homo sapiens, UniProt P10636); assay: ThT assay of heparin-induced tau aggregation (with AFM analysis); format: biochemical; settings: 15 μM tau, 8 μM heparin, 20 μM ThT; for effect on tau aggregation (ThT analysis): 15 μM peptide, 37° C., PBS pH 7.4 (FIG. 1)
Experimental: The effects of TF2D-1 and TF2D-5 on tau aggregation are shown. The ThT assay was performed by incubation of 15 μM tau with 8 μM heparin, 20 μM THT and 15 μM of either of the two peptides TF2D-1 or TF2D-5 at 37° C. in PBS pH 7.4. The sample without addition of the peptide is shown in red. The samples in which TF2D-1 or TF2D-5 was present are shown in green (TF2D-1) and blue (TF2D-5).
Shown are the effects of TF2D-5 on tau aggregation. The ThT assay was performed by incubation of 15 μM tau with 8 μM heparin, 20 μM ThT, 10% DMSO and different concentrations of TF2D-5 at 37° C. pH 7.0. The images next to the graph show the respective AFM measurements of each sample taken after 5 days. […] The image marked with C corresponds to the blue ThT curve without dilution, where TF2D-5 was added after 24 hours. All AFM measurements were performed by drying 1 μl on a mica, followed by two wash steps with 100 μl water and measurement on JPK Nanowizard3 with intermittent contact air and an OMCL AC160TS as cantilever.

[1] = biological target: T1, monomeric full-length tau 441 (Homo sapiens, UniProt P10636); assay: SPR measurement of peptide binding to tau; settings: for Kd: SPR T200 Biacore, peptide immobilised on CM5 chip, monomeric tau as analyte, TBS pH 7.4, 0.05% Tween 20, DTT, 1:1 model (FIG. 2b)
T1 construct: SPR measurement of TF2D-5 and TF2D-5a with full-length tau 441
Experimental: SPR measurements of TF2D-5 with the analyte tau. Seven concentrations of tau were prepared for the measurement, with the highest concentration at 100 nM and the lowest concentration at 1.56 nM. The running buffer contained TBS with 0.1% Tween. The Koff was determined to be approximately 6×10-5 s-1.
The tau concentration during the measurement varied from 3.125 nM to 25 nM. […] Tau was used at concentrations from 31.25 nM to 500 nM. SPR measurements of A and B were recorded on a T200 Biacore instrument, the respective peptide was immobilised on a CM5 chip from Cytiva, while monomeric tau served as the analyte. The tests were performed using TBS pH 7.4, 0.05% Tween […] DTT as running buffer. The fit calculation was performed using the internal evaluation software of the T200 Biacore. A 1:1 model was used for both fits.

tau in full-length = biological target: T2, tau in full-length (Homo sapiens, UniProt P10636); assay: MST measurement of CF633-labelled peptides with tau in full-length; format: binding; settings: read-out: KD (MST, Boltzmann fit)
T2 construct: MST measurement of TF2D-5, TF2D-5a and CP1 with tau in full-length
Experimental: MST measurement of TF2D-5, TF2D-5a and CP1 with tau in full-length. A) Boltzmann fit of TF2D-5 MST measurements with tau in full-length. TF2D-5 was labelled with CF633. The concentration of TF2D-5 was 500 nM, while the concentration of tau in full-length was between 2.5 μM and 0.2 pM. The measurement was performed in 1×PBS pH 7.4 with 150 mM NaCl. […] B) Boltzmann fit of TF2D-5a MST measurements with tau in full length. TF2D-5a was labelled with CF633. The concentration of TF2D-5a was 62.5 nM, while the concentration of tau in full-length varied between 300 nM and 0.5 nM. The measurement was performed in 0.1 M sodium phosphate buffer pH 7.4 with 75 mM sodium sulphate and 0.05% Tween 20. […] C) Average of the CP1-MST measurements with tau in full length. CP1 consists of the same amino acids as TF2D-5, but with a different distribution of the amino acids. CP1 was labelled with CF633. The concentration of CP1 was 62.5 nM, while the concentration of tau in full-length varied between […] and 0.2 pM. The measurement was performed in 0.1 M sodium phosphate buffer pH 7.4 with 75 mM sodium sulphate and 0.05% Tween 20. […] D) Calculated KDs of the individual peptides to tau in full-length at a glance. All experiments were repeated four times and the average of all measurements was calculated, which in turn was used to calculate the fits (Boltzmann).

[2] = Stability study in different simulated human body fluids; format: in vitro ADME; settings: simulated gastric fluid pH 1, simulated intestinal fluid pH 6.8, human blood plasma, human liver microsomes (FIG. 6)
Experimental: Stability study of TF2D-5 and TF2D-5a in different simulated human body fluids. A) Stability of the peptides in simulated gastric fluid (SGF). The simulated gastric fluid consisted of 2 mg/ml sodium chloride, 3.2 mg/ml pepsin and 80 mM HCl; pH 1. B) Stability of TF2D-5 and TF2D-5a in simulated intestinal fluid (SIF). Simulated intestinal fluid consisted of 6.8 mg/ml potassium dihydrogen phosphate, 10 mg/ml pancreatic powder and 15.4 mM NaOH; pH 6.8. C) Stability of TF2D 5 and TF2D-5a in human blood plasma. Human K3EDTA blood plasma was obtained from BioTrend. D) Stability of TF2D-5 and TF2D-5a in human liver microsomes. Human liver microsomes consisted of 6 mg/ml protein (containing cytochrome P450 (CYP) enzymes), 75 mM sucrose, 1.3 mM NADPH, 3.3 mM D-glucose-6-phosphate, 0.2 u/ml D-glucose-6-phosphate dehydrogenase, 3.3 mM magnesium chloride and 100 mM potassium phosphate pH 7.4.

tauk18 (LM)-YFP cells = assay: Inhibition of tau aggregation in cells seeded with sonified tau fibrils; format: cell-based; settings: three-day treatment
Experimental: A) TF2D-5a and the D-peptide CP-1, as negative control, were tested for their ability to inhibit the tau aggregation in tauk18 (LM)-YFP cells. The scale bar corresponds to 50 μm and applies to b-d. The significance was calculated using a one-way ANOVA followed by Dunnett's test for multiple comparisons. Three asterisks represent a p-value of less than 0.001 and four asterisks a p-value of less than 0.0001.

Chain of tau (P10636 1-441 isoform P10636-8): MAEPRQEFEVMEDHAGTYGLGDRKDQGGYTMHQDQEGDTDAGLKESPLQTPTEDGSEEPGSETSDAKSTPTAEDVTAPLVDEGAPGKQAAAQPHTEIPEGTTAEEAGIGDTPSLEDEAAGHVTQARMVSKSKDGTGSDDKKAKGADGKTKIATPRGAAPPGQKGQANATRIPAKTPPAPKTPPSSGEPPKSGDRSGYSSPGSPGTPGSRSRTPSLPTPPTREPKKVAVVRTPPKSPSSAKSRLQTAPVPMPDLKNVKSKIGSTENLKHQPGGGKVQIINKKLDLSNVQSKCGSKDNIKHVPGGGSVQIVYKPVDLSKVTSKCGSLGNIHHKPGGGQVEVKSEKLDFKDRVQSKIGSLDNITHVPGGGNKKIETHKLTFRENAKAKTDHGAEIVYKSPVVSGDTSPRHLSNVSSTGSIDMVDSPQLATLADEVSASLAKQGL
T1 sequence (P10636 1-441 isoform P10636-8): as above
T2 sequence (P10636 1-441 isoform P10636-8): as above

| effect on tau aggregation (ThT and AFM analysis) (tau; 10% DMSO, different concentrations of TF2D-5, 37° C., pH 7.0, AFM after 5 days (FIG. 3)) | Kd [1] [nM] | koff ([1]; SPR, analyte tau 1.56-100 nM, running buffer TBS with 0.1% Tween (FIG. 2a)) [s⁻¹] | Kd (tau in full-length; 500 nM labelled peptide, tau 2.5 μM to 0.2 pM, 1×PBS pH 7.4 with 150 mM NaCl (FIG. 4A)) [nM] | stability in different body fluids [2] | Kd (tau in full-length; 62.5 nM labelled peptide, tau 300 nM to 0.5 nM, 0.1 M sodium phosphate buffer pH 7.4, 75 mM sodium sulphate, 0.05% Tween 20 (FIG. 4B)) [nM] | Molecule | effect on tau aggregation (ThT analysis) (tau) | effect on number of cells with tau aggregates (tauk18 (LM)-YFP cells; cells seeded with sonified tau fibrils (FIG. 5)) | concentration at which reduction in number of cells with tau aggregates was significant (tauk18 (LM)-YFP cells; further reduced at 25 μM and 50 μM, one-way ANOVA, Dunnett's test) [UM] |
| --- | --- | --- | --- | --- | --- | --- | --- | --- | --- |
| inhibits tau aggregation | 1.3 | ~6e-05 | 0.308 | very stable |  | CC[C@@H](C)[C@@H](NC(=O)[C@@H](Cc1c[nH]cn1)NC(=O)CNC(=O)CNC(=O)[C@H]1CCCN1C(=O)[C@H](NC(=O)[C@@H](CCCCN)NC(=O)[C@@H](Cc1ccccc1)NC(=O)[C@@H](CC(C)C)NC(=O)[C@H](NC(=O)[C@@H](CCC(N)=O)NC(=O)[C@@H](Cc1ccc(O)cc1)NC(=O)CNC(=O)CNC(=O)[C@H](N)CC(=O)O)[C@H](C)CC)[C@H](C)CC)C(=O)N[C@H](Cc1c[nH]cn1)C(N)=O [TF2D-5, dggyqilfkipgghih] (H-[dD]GG[dY][dQ][dI][dL][dF][dK][dI][dP]GG[dH][dI][dH]-NH2) | inhibit tau aggregation |  |  |
|  | 6.1 |  |  | very stable | 11.7 | CC[C@@H](C)[C@@H](NC(=O)[C@@H](Cc1c[nH]cn1)NC(=O)CNC(=O)CNC(=O)[C@H]1CCCN1C(=O)[C@H](NC(=O)[C@@H](CCCCN)NC(=O)[C@@H](Cc1ccccc1)NC(=O)[C@@H](CC(C)C)NC(=O)[C@H](NC(=O)[C@@H](CCC(N)=O)NC(=O)[C@@H](Cc1ccc(O)cc1)NC(=O)CNC(=O)CNC(=O)[C@H](N)CC(=O)O)[C@H](C)CC)[C@H](C)CC)C(=O)N[C@H](Cc1c[nH]cn1)C(=O)N[C@H](CCCNC(=N)N)C(=O)N[C@H](CCCNC(=N)N)C(=O)N[C@H](CCCNC(=N)N)C(=O)N[C@H](CCCNC(=N)N)C(=O)N[C@H](CCCNC(=N)N)C(N)=O [TF2D-5a, dggyqilfkipgghihrrrrr] (H-[dD]GG[dY][dQ][dI][dL][dF][dK][dI][dP]GG[dH][dI][dH][dR][dR][dR][dR][dR]-NH2) |  | concentration-dependent reduction in the number of cells with tau aggregates | 12.5 |
|  |  |  |  |  |  | Nemylwhwqypqhlrvg (H-[dN][dE][dM][dY][dL][dW][dH][dW][dQ][dY][dP][dQ][dH][dL][dR][dV]G-NH2; SMILES CSCC[C@@H](NC(=O)[C@@H](CCC(=O)O)NC(=O)[C@H](N)CC(N)=O)C(=O)N[C@H](Cc1ccc(O)cc1)C(=O)N[C@H](CC(C)C)C(=O)N[C@H](Cc1c[nH]c2ccccc12)C(=O)N[C@H](Cc1c[nH]cn1)C(=O)N[C@H](Cc1c[nH]c2ccccc12)C(=O)N[C@H](CCC(N)=O)C(=O)N[C@H](Cc1ccc(O)cc1)C(=O)N1CCC[C@@H]1C(=O)N[C@H](CCC(N)=O)C(=O)N[C@H](Cc1c[nH]cn1)C(=O)N[C@H](CC(C)C)C(=O)N[C@H](CCCNC(=N)N)C(=O)N[C@@H](C(=O)NCC(N)=O)C(C)C) [TF2D-1] | inhibit tau aggregation |  |  |
